Here are results for 3 compounds from publication PMC3791872 (Bioscience Reports, 2013).

Series [1] has as its target T1, Mcm2-7.
T1 construct: made in house; host or cells: baculovirus-infected insect cells
Kind of series: Mcm2-7 helicase (DNA unwinding) assay. The format is biochemical, Saccharomyces cerevisiae. The note with it: DNA unwinding, 100 nM hexamer, inhibitor preincubation; value (95% CI); read-out: IC50 Mcm2-7.

The target in series [2] is T2, Mcm467 (Saccharomyces cerevisiae, UniProt P30665+P38132+P53091).
T2 construct: made in house; host or cells: baculovirus-infected insect cells
T2 sequence (P30665 whole entry): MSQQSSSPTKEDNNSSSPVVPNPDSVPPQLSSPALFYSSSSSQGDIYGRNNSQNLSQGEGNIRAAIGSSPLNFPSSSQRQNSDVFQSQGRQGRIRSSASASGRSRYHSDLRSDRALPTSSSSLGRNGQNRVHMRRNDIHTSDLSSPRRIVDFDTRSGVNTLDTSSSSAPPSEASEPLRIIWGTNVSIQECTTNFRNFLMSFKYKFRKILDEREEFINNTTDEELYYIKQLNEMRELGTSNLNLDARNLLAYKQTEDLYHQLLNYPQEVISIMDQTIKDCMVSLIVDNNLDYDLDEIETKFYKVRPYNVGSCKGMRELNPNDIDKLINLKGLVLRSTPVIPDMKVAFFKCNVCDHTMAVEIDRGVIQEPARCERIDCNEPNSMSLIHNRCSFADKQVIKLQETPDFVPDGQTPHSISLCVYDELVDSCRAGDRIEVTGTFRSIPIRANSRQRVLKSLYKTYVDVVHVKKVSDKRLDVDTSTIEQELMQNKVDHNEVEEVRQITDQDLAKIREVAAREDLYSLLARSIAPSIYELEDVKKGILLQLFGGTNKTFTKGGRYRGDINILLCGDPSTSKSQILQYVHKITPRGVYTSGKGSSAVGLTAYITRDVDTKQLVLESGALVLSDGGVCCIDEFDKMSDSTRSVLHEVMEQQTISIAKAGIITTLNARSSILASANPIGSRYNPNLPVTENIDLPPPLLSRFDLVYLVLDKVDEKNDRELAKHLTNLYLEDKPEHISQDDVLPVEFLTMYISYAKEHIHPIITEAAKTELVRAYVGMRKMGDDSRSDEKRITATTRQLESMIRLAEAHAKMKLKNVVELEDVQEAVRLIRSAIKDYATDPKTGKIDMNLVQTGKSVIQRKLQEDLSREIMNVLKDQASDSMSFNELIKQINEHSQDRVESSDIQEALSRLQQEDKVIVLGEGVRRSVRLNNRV
T2 sequence (P53091 whole entry): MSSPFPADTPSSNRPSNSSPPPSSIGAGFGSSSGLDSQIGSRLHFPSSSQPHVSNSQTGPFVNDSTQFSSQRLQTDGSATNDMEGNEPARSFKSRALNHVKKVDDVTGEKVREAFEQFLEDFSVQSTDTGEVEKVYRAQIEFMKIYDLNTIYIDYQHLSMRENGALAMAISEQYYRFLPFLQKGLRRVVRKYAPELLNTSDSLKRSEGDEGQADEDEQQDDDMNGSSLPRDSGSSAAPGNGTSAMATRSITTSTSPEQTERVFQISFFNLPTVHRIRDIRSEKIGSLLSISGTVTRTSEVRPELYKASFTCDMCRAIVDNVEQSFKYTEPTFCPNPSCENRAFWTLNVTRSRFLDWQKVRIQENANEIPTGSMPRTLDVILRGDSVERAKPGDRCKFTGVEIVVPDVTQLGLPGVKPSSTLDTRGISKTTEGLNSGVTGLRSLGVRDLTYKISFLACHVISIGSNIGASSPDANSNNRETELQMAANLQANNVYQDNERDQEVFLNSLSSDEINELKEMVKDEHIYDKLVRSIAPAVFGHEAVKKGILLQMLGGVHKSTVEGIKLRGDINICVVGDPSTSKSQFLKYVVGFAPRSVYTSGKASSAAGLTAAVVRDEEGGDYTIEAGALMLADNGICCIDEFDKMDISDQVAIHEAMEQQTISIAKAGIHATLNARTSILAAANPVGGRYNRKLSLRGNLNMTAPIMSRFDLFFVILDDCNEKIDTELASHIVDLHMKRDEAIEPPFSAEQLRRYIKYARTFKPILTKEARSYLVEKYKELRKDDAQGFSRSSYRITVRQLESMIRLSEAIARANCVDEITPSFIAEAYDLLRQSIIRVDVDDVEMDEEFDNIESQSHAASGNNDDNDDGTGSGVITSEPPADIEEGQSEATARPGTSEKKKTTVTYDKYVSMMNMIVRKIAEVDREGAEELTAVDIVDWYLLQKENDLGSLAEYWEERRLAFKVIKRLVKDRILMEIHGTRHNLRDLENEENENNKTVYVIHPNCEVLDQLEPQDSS
T2 sequence (P38132 whole entry): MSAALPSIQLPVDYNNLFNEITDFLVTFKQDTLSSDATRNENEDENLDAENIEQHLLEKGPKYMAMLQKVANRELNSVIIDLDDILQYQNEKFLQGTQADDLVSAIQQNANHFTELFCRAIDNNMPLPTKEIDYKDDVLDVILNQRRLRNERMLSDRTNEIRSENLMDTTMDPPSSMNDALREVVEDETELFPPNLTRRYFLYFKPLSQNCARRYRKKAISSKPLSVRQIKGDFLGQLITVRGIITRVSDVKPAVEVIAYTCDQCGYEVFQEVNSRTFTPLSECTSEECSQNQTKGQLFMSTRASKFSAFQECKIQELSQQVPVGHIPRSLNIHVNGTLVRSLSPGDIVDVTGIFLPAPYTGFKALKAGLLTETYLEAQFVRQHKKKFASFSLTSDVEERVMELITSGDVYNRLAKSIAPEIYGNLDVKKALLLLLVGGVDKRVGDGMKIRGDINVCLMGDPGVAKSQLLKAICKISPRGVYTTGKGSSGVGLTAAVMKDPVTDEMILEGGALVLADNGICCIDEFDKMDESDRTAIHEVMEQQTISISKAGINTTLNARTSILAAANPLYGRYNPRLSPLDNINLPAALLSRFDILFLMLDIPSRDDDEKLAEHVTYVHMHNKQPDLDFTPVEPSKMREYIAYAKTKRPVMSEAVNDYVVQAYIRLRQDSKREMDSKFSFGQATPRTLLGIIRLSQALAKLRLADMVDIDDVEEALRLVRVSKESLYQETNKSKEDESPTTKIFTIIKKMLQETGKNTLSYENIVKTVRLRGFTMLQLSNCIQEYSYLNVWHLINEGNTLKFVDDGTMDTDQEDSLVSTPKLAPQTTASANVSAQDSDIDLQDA
The series is described as follows: Mcm467 helicase (DNA unwinding) assay. Format: biochemical. As to conditions: DNA unwinding, 100 nM hexamer, inhibitor preincubation; value (95% CI); read-out: IC50 Mcm467.

The target in series [3] is SV40 large TAg (T-antigen) (Simian virus 40, UniProt P03070). The series is described as follows: biochemical. Also noted: species or system SV40 (simian virus 40). As to conditions: DNA unwinding, 100 nM hexamer, inhibitor preincubation; […]; read-out: IC50 T-antigen.
Chain of SV40 large TAg (T-antigen) (P03070 whole entry, looked up): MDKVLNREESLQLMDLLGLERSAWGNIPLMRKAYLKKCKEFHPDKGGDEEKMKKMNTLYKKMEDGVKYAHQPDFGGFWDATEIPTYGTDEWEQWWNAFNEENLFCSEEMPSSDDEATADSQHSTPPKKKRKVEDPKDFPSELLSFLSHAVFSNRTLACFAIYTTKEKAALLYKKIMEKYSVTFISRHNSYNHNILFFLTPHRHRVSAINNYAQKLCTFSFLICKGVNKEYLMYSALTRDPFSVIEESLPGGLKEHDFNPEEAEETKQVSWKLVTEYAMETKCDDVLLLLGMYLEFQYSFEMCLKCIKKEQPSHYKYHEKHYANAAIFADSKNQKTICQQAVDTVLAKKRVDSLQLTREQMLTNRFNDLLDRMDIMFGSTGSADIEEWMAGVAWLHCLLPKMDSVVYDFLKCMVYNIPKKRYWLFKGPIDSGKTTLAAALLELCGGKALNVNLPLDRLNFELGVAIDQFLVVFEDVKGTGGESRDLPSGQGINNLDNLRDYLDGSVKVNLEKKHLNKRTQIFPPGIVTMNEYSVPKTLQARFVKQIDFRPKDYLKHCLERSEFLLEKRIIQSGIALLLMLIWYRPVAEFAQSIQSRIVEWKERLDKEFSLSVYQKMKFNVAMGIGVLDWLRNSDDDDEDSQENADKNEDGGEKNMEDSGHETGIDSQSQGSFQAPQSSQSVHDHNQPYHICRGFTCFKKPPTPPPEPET
Series [4] relates to T1, Mcm2-7. Kind of series: Steady-state ATP hydrolysis by Mcm2-7. Format: biochemical, Saccharomyces cerevisiae. The note with it: 1 mM compound, 100 nM hexamer.
For series [5], the target named is T2, Mcm467. Kind of series: Steady-state ATP hydrolysis by Mcm467. Format: biochemical. As to conditions: 1 mM compound, 100 nM hexamer.
In the next series the target is T3, SV40 large TAg (Simian virus 40, UniProt P03070).
T3 construct: made in house
T3 sequence (P03070 whole entry): as the sequence (P03070 whole entry, looked up) above
The series is described as follows: Steady-state ATP hydrolysis by TAg. The format is biochemical, SV40 (simian virus 40). The note with it: 1 mM compound, 100 nM hexamer.

The test system of series [6] is T1, Mcm2-7. Kind of series: ssDNA double filter-binding assay, Mcm2-7. Also noted: species or system Saccharomyces cerevisiae. As to conditions: 1 mM compound, 150 nM helicase.
For series [7], the target named is T2, Mcm467. The series is described as follows: ssDNA double filter-binding assay, Mcm467. As to conditions: 1 mM compound, 150 nM helicase.
The subject of another series is pUC19. Kind of series: DNA intercalation assay (Topo I-relaxed plasmid). The format is biochemical. As to conditions: 1 mM inhibitor added after plasmid relaxation (Figure 3C). From the text:
To examine this model, we tested our inhibitors in a standard topoisomerase assay. The rationale of this assay is that intercalating compounds will introduce supercoils into a fully relaxed plasmid. Topo I will remove these introduced supercoils, but after quenching and gel electrophoresis the intercalator will diffuse away and produce a detectable compensatory supercoiling increase.

The test system of the next series is Wheat Germ Topo I. The series is described as follows: Topo I activity inhibition assay. The note with it: 1 mM inhibitor added together with Topo I (Figure 3D).
Series [8] has as its system S. cerevisiae ∆erg6 (UPY675). Kind of series: Yeast growth inhibition, 96-well assay, ∆erg6 strain. Format: cell-based, Saccharomyces cerevisiae. As to conditions: Saccharomyces cerevisiae, read-out: IC50 Yeast.
A further series is described as follows: Solubility in assay. As to conditions: helicase assay conditions.
Another series deals with RPE-hTERT cells. Kind of series: Human cell viability, MTS method. The format is cell-based. The note with it: 48 h, value (95% CI). The method, then:
Ciproﬂoxacin is an inhibitor of the Mcm2-7 […]
The viability of human cells was assayed using the MTS method
[1]. Brieﬂy, 1 ×10^5 cells of the human non-tumour cell line RPE-hTERT were plated into each well of a 96-well plate and grown in DMEM: F12 containing 10 % (v/v) FBS in 5 % (v/v) CO2 at 37 ◦ C. The next day, the indicated compounds were titrated into media such that the ﬁnal concentration contained 1 % (v/v)
DMSO. As a negative control, media were also prepared that contained 1 % DMSO but lacked compound. After 48 h, the media was removed and replaced with DMEM lacking phenol red but containing Cell Titer 96 Aqueous One Solution Cell Proliferation
Assay (Promega). After 1 h, the A490 nm was measured using a BioRad iMark Microplate Reader (Hercules). Final data reﬂect the average and standard deviation (S.D.) of three replicates at each compound concentration. […]
A general note: Tetrazolium assays rely on reduction of a dye to a coloured formazan, in cell work by metabolically active cells.

Series [9] deals with T4, SsoMcm (Sulfolobus solfataricus Mcm protein) complex (Saccharolobus solfataricus, UniProt Q9UXG1).
T4 sequence (Q9UXG1 1-686): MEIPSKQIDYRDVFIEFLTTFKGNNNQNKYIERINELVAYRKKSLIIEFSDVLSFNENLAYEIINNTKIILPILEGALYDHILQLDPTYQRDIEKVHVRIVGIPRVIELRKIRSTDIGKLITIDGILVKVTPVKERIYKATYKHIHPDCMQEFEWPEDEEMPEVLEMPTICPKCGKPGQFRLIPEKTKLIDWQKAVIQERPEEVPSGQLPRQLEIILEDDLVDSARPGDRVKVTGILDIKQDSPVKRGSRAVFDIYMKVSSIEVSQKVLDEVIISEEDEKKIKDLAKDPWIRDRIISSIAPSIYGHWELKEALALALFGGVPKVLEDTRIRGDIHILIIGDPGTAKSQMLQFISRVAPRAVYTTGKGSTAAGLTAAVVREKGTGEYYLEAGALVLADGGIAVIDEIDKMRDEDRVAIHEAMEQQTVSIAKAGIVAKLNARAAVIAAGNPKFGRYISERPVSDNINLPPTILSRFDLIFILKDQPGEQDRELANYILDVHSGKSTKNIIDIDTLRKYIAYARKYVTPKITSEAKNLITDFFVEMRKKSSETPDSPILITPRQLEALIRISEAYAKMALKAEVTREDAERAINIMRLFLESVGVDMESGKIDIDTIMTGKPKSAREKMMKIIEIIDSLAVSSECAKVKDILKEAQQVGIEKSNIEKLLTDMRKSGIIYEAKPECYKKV
The series is described as follows: SsoMcm helicase assay. Format: biochemical. As to conditions: 1 mM, 65°C, Figure S3. The method, then:
Helicase assays were performed essentially as described. Synthetic replication forks were prepared by annealing oligos 233 and 235 [IDT (Coralville), oligo 233 5′(T)40[…]; oligo 235 5′ […](T)40] and then filling in the recessed 3′-end with [α32P]dATP and unlabelled dNTPs using Klenow Fragment. Briefly, reactions ([…]) were performed in 1× helicase assay buffer [20 mM Tris/HCl (pH 7.5), 10 mM MgOAc, 20% (v/v) glycerol, 100 μM EDTA and 5 mM DTT (dithiothreitol)] and contained a final concentration of 1 nM fork substrate, 5 mM ATP, 40 mM creatine phosphate, […] creatine kinase, 33 μg/ml BSA. Reactions containing Mcm2-7 and Mcm467 were supplemented with 200 mM potassium glutamate. Reactions containing SsoMcm were incubated at 65°C, those containing T4 gp41 were incubated for 30 min at 37°C, and all other reactions were incubated at 37°C for 1 h. The products were separated by 10% (w/v) native PAGE, the resulting gels dried and the radioactivity quantified using a Fuji FLA-5100 phosphoimager. […] ATP was separated from ADP by PEI (polyethyleneimine) thin layer chromatography, and the ratio of ATP:ADP was quantified using a Fuji FLA-5100 phosphoimager. […] Protein–ssDNA binding was determined with a double filter-binding assay using an ssDNA probe (oligo 826, 5′[…]) that was 5′-radiolabelled using T4 polynucleotide kinase and [γ32P]ATP [16]. […]

Like-named read-outs stand apart in the source and are kept apart here. A value given as a limit tells only on which side of the number the result lay.

Consider `CC1=C(C(=O)OCc2ccccc2)C(c2ccc(-c3ccccc3)cc2)NC(=O)N1CCCCCC(=O)O` (stereo not drawn) [MAL2-11b, reference compound], for which the half-inhibitory concentration (IC50) was determined as 96 µM at Mcm2-7 [1], 112 µM on Mcm467 [2] and 192 µM in [3]. For the same compound, the “effect on ATP hydrolysis of Mcm2-7” value in the series on Mcm2-7 [4] was “completely inhibits”. Also, at Mcm467 [5], the “effect on ATP hydrolysis of Mcm467” value is on record as “completely inhibits”. For the same compound, at SV40 large TAg, the “effect on ATP hydrolysis of TAg” value is given as “completely inhibits”. For the same compound, the “effect on ssDNA binding of Mcm2-7” value in the series on Mcm2-7 [6] is given as “inhibit”. In addition, the “effect on ssDNA binding of Mcm467” value on Mcm467 [7] is listed as “inhibit”. Moreover, in the series with pUC19, the DNA intercalation entry is given as “little or no intercalation”. For the same compound, the “Topo I inhibition” value with Wheat Germ Topo I was “Topo I inhibitor”.

As to `CCn1cc(C(=O)O)c(=O)c2c(N)c(F)c(N3CCNCC3)c(F)c21` [compound 271327], the IC50 is 361 µM at Mcm2-7 [1], 460 µM at Mcm467 [2], > 1000 µM in series [3] and 700 µM in series [8] (24 h). The “effect on ATP hydrolysis of Mcm2-7” value with Mcm2-7 [4] was “essentially no inhibition”. In addition, the “effect on ATP hydrolysis of Mcm467” value at Mcm467 [5] was “essentially no inhibition”. In addition, the “effect on ATP hydrolysis of TAg” value at SV40 large TAg was “essentially no inhibition”. Moreover, the DNA intercalation entry in the series on pUC19 is recorded as “little or no intercalation”. Besides, in “Solubility in assay”, the solubility entry is listed as “limited solubility”.

On to `CSc1c(N2CCC(C(C)N)C2)ccc2c(=O)c(C(=O)O)cn(C3CC3)c12` (stereo not drawn) [compound 314850], for which the IC50 is 261 µM at Mcm2-7 [1]; 707 µM at Mcm467 [2]; > 1000 µM in series [3]; 520 µM in series [8] (∆erg6 strain, growth over 24 h, value (95% CI)); 340 µM in the series on RPE-hTERT cells; 500 to 700 µM in the series on RPE-hTERT cells (Homo sapiens). In the series with Mcm2-7 [4], the “effect on ATP hydrolysis of Mcm2-7” value is listed as “essentially no inhibition”. Besides, the “effect on ATP hydrolysis of Mcm467” value at Mcm467 [5] is given as “essentially no inhibition”. In addition, the “effect on ATP hydrolysis of TAg” value on SV40 large TAg was “essentially no inhibition”. Moreover, the DNA intercalation result in the series on pUC19 is on record as “little or no intercalation”. In series [9], the “inhibition of SsoMcm helicase” value is on record as “effectively inhibited”.

As usually defined, the IC50 is the concentration that gives 50% inhibition.
